≈ marks a conversion by molar mass, not a printed value.
Experiments:
Klebsiella pneumoniae [1] = experiment: Antibacterial activity against Klebsiella pneumoniae clinical isolate KPN+22-1 assessed as reduction in bacterial growth measured after 18 to 24 hrs by CLSI protocol based method; type: functional; details: time 18-24 hrs
[2] = AUC (0 to t) in male Sprague-Dawley rat at 1 mg/kg, iv measured upto 24 hrs by LC-MS analysis; type: ADME, organism-based; details: in vivo
[3] = MRT (0 to t) in male Sprague-Dawley rat at 10 mg/kg, IG measured upto 24 hrs by LC-MS analysis; type: ADME, organism-based; details: in vivo, po
Cytochrome P450 2D6 = Cytochrome P450 2D6 (Homo sapiens, UniProt P10635); experiment: Inhibition of CYP2D6 in human liver microsomes using quinidine […] preincubated for 5 mins followed by substrate addition ande measured after 120 mins in presence of NADPH by LC-MS/MS analysis; type: ADME, Microsome
Chain of Cytochrome P450 2D6 (P10635 whole entry): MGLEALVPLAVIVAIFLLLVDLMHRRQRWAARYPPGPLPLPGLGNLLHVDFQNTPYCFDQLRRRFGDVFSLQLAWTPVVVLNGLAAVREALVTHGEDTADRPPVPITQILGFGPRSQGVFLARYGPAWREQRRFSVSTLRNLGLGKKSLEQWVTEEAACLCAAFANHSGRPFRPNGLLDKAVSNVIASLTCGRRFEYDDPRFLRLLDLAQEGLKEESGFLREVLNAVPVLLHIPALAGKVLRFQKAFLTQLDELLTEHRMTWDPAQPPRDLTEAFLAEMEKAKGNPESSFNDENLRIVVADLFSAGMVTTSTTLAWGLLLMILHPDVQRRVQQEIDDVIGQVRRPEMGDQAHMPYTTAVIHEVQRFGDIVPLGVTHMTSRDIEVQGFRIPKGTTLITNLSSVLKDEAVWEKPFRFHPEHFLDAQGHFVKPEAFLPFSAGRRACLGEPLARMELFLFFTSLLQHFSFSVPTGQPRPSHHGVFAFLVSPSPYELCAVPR

Klebsiella pneumoniae [4] = experiment: Antibacterial activity against Klebsiella pneumoniae ATCC700603 assessed as reduction in bacterial growth measured after 18 to 24 hrs by CLSI protocol based method; type: functional; details: time 18-24 hrs
[5] = Plasma protein binding in human at 1 uM incubated for 6 hrs by LC-MS/MS analysis; type: ADME, cell-free; details: read-out: PPB
[6] = Volume of distribution at steady state in male Sprague-Dawley rat at 1 mg/kg, iv measured upto 24 hrs by LC-MS analysis; type: ADME, organism-based; details: in vivo, read-out: Vdss
[7] = Metabolic stability in rat liver microsomes assessed as half life at 1 uM preincubated for 5 mins followed by NADPH addition and measured after 5 to 60 mins by LC-MS analysis; type: ADME, Microsome; details: microsomes, 1 µM, time 10-65 min
[8] = Metabolic stability in rat liver microsomes assessed as intrinsic clearance at 1 uM preincubated for 5 mins followed by NADPH addition and measured after 5 to 60 mins by LC-MS analysis; type: ADME, Microsome; details: microsomes, 1 µM, time 10-65 min
[9] = Half life in male Sprague-Dawley rat at 1 mg/kg, iv measured upto 24 hrs by LC-MS analysis; type: ADME, organism-based; details: in vivo
[10] = Plasma protein binding in human assessed as unbound fraction at 1 uM incubated for 6 hrs by LC-MS/MS analysis; type: ADME, cell-free
[11] = Metabolic stability in human liver microsomes assessed as half life at 1 uM preincubated for 5 mins followed by NADPH addition and measured after 5 to 60 mins by LC-MS analysis; type: ADME, Microsome; details: microsomes, 1 µM, time 10-65 min
[12] = Plasma protein binding in rat assessed as drug recovery at 1 uM incubated for 6 hrs by LC-MS/MS analysis; type: ADME, cell-free; details: read-out: Drug recovery
Cytochrome P450 2C9 = Cytochrome P450 2C9 (Homo sapiens, UniProt P11712); experiment: Inhibition of CYP2C9 in human liver microsomes using sulfaphenazolum […] preincubated for 5 mins followed by substrate addition ande measured after 120 mins in presence of NADPH by LC-MS/MS analysis; type: ADME, Microsome
Chain of Cytochrome P450 2C9 (P11712 whole entry): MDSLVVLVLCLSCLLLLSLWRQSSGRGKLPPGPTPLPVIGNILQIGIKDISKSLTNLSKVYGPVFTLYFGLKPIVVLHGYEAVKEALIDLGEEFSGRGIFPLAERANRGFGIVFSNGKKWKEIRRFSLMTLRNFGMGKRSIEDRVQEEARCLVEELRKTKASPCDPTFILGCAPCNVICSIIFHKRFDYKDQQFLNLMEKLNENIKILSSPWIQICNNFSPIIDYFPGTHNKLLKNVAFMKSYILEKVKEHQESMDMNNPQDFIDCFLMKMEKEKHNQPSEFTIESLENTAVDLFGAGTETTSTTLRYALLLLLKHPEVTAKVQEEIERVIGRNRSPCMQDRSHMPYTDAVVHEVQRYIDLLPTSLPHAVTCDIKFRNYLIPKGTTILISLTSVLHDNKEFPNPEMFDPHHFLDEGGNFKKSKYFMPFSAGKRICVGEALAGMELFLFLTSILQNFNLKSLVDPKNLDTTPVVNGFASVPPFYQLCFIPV

[13] = Cmax in male Sprague-Dawley rat at 10 mg/kg, IG measured upto 24 hrs by LC-MS analysis; type: ADME, organism-based; details: in vivo, po
[14] = Solubility of the compound at pH 9.0 by LC-MS/MS analysis; type: physicochemical; details: buffer
Pseudomonas aeruginosa [15] = experiment: Antibacterial activity against Pseudomonas aeruginosa clinical isolate PAE22-1 assessed as reduction in bacterial growth measured after 18 to 24 hrs by CLSI protocol based method; type: functional; details: time 18-24 hrs
[16] = Clearance in male Sprague-Dawley rat at 1 mg/kg, iv measured upto 24 hrs by LC-MS analysis; type: ADME, organism-based; details: in vivo
[17] = Stability in rat plasma at 1 uM incubated for 6 hrs by LC-MS/MS analysis; type: ADME, cell-free; details: read-out: Stability
[18] = Plasma protein binding in mouse at 1 uM incubated for 6 hrs by LC-MS/MS analysis; type: ADME, cell-free; details: read-out: PPB (converted)
[19] = Metabolic stability in mouse liver microsomes assessed as half life at 1 uM preincubated for 5 mins followed by NADPH addition and measured after 5 to 60 mins by LC-MS analysis; type: ADME, Microsome; details: microsomes, 1 µM, time 10-65 min
[20] = Solubility of the compound at pH 4.0 by LC-MS/MS analysis; type: physicochemical; details: buffer
Escherichia coli = experiment: Antibacterial activity against Escherichia coli ATCC25922 assessed as reduction in bacterial growth measured after 18 to 24 hrs by CLSI protocol based method; type: functional; details: time 18-24 hrs
[21] = Plasma protein binding in mouse assessed as unbound fraction at 1 uM incubated for 6 hrs by LC-MS/MS analysis; type: ADME, cell-free
[22] = Intrinsic clearance in mouse; type: ADME, organism-based; details: read-out: CLH
[23] = Stability in mouse plasma at 1 uM incubated for 6 hrs by LC-MS/MS analysis; type: ADME, cell-free; details: read-out: Stability
[24] = Intrinsic clearance in human; type: ADME; details: read-out: CLH
Cytochrome P450 2C19 = Cytochrome P450 2C19 (Homo sapiens, UniProt P33261); experiment: Inhibition of CYP2C19 in human liver microsomes using nootkatone […] preincubated for 5 mins followed by substrate addition ande measured after 120 mins in presence of NADPH by LC-MS/MS analysis; type: ADME, Microsome
Chain of Cytochrome P450 2C19 (P33261 whole entry): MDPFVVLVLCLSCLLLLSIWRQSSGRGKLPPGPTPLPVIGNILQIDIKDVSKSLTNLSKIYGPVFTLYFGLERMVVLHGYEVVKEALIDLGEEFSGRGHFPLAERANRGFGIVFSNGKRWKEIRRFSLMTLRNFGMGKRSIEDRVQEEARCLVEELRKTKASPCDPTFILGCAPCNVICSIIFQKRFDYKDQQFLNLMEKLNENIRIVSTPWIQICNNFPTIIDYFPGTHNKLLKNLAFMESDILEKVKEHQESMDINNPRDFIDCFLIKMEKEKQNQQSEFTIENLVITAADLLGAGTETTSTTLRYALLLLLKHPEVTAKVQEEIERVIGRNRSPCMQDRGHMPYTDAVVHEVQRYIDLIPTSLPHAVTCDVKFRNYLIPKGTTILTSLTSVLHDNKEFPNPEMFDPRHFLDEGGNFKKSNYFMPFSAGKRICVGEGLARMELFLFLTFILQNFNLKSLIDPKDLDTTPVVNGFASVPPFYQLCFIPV

[25] = Solubility of the compound at pH 6.8 by LC-MS/MS analysis; type: physicochemical; details: buffer
[26] = AUC (0 to t) in male Sprague-Dawley rat at 10 mg/kg, IG measured upto 24 hrs by LC-MS analysis; type: ADME, organism-based; details: in vivo, po
[27] = Oral bioavailability in male Sprague-Dawley rat at 10 mg/kg, IG measured upto 24 hrs by LC-MS analysis; type: ADME, organism-based; details: in vivo
Pseudomonas aeruginosa [28] = experiment: Antibacterial activity against Pseudomonas aeruginosa ATCC27853 assessed as reduction in bacterial growth measured after 18 to 24 hrs by CLSI protocol based method; type: functional; details: time 18-24 hrs
[29] = MRT (0 to t) in male Sprague-Dawley rat at 1 mg/kg, iv measured upto 24 hrs by LC-MS analysis; type: ADME, organism-based; details: in vivo
[30] = Plasma protein binding in mouse assessed as drug recovery at 1 uM incubated for 6 hrs by LC-MS/MS analysis; type: ADME, cell-free; details: read-out: Drug recovery
[31] = Half life in male Sprague-Dawley rat at 10 mg/kg, IG measured upto 24 hrs by LC-MS analysis; type: ADME, organism-based; details: in vivo, po
HepG2 = experiment: Cytotoxicity against human HepG2 cells assessed as inhibition of cell growth measured after 48 hrs by MTT assay; type: functional, cell-based; details: HepG2, 48 h
[32] = Metabolic stability in mouse liver microsomes assessed as intrinsic clearance at 1 uM preincubated for 5 mins followed by NADPH addition and measured after 5 to 60 mins by LC-MS analysis; type: ADME, Microsome; details: microsomes, 1 µM, time 10-65 min
[33] = Intrinsic clearance in rat; type: ADME; details: read-out: CLH
[34] = Plasma protein binding in rat assessed as unbound fraction at 1 uM incubated for 6 hrs by LC-MS/MS analysis; type: ADME, cell-free
Cytochrome P450 1A2 = biological target: T1, Cytochrome P450 1A2 (Homo sapiens, UniProt P05177); experiment: Inhibition of CYP1A2 in human liver microsomes using alpha-naphthoflavone […] preincubated for 5 mins followed by substrate addition ande measured after 120 mins in presence of NADPH by LC-MS/MS analysis; type: ADME, Microsome
T1 sequence (P05177 whole entry): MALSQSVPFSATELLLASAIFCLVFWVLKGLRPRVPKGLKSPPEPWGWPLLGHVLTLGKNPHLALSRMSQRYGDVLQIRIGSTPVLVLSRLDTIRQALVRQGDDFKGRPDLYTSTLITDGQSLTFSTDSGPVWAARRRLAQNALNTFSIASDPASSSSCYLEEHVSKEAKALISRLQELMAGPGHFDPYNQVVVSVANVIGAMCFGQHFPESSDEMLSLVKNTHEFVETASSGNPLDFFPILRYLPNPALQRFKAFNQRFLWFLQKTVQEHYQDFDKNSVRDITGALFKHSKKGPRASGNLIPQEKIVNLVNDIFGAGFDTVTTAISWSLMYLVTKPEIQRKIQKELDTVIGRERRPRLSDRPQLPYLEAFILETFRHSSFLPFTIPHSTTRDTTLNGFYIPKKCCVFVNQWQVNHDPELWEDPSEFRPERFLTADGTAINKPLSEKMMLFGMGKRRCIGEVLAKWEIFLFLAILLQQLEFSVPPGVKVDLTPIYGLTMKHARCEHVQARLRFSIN

[35] = Tmax in male Sprague-Dawley rat at 10 mg/kg, IG measured upto 24 hrs by LC-MS analysis; type: ADME, organism-based; details: in vivo, po
[36] = Stability in human plasma at 1 uM incubated for 6 hrs by LC-MS/MS analysis; type: ADME, cell-free; details: read-out: Stability
[37] = Plasma protein binding in human assessed as drug recovery at 1 uM incubated for 6 hrs by LC-MS/MS analysis; type: ADME, cell-free; details: read-out: Drug recovery
Cytochrome P450 3A4 = Cytochrome P450 3A4 (Homo sapiens, UniProt P08684); experiment: Inhibition of CYP3A4 in human liver microsomes using ketoconazole […] preincubated for 5 mins followed by substrate addition ande measured after 120 mins in presence of NADPH by LC-MS/MS analysis; type: ADME, Microsome
Chain of Cytochrome P450 3A4 (P08684 whole entry): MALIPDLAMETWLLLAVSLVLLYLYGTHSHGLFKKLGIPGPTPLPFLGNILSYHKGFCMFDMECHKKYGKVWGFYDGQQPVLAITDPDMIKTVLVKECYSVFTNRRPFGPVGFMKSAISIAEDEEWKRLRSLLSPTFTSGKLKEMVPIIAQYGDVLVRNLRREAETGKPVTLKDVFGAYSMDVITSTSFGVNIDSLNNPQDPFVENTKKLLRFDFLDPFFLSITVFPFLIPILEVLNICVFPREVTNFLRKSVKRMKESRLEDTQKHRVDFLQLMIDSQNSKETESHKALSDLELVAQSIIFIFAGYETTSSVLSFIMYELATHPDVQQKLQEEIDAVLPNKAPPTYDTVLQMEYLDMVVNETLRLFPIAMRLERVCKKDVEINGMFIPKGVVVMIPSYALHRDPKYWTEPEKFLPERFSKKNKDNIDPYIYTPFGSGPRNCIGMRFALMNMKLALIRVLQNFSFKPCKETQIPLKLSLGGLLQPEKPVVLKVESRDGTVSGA

[38] = Plasma protein binding in rat at 1 uM incubated for 6 hrs by LC-MS/MS analysis; type: ADME, cell-free; details: read-out: PPB (converted)

C[C@@H](O)[C@H](NC(=O)c1ccc(C#Cc2ccc(/C=N/N3CCCC3)cc2)cc1)C(=O)NO
MIC (Klebsiella pneumoniae [1]): 0.25 µg/mL (≈ 0.575 µM) | AUC(0-t) at 24 h [2]: 791 ng·h/mL | MRT last at 24 h [3]: 3.41 h | IC50 (Cytochrome P450 2D6): > 30 µM | MIC (Klebsiella pneumoniae [4]): 8 µg/mL (≈ 18.4 µM) | fraction unbound at 6 h, 1 µM [5]: 0.001 | Vd [6]: 1.8 L/kg | t1/2 [7]: 4.14 min | CLH [8]: 9.76 µL/min/mg | half-life [9]: 1.09 h | fraction unbound at 6 h, 1 µM [10]: 0.0013 | t1/2 [11]: 5.62 h | recovery at 6 h, 1 µM [12]: 102% | IC50 (Cytochrome P450 2C9): > 30 µM | Cmax [13]: 218 ng/mL | solubility [14]: 101 µM (≈ 43.9 µg/mL) | MIC (Pseudomonas aeruginosa [15]): 2 µg/mL (≈ 4.6 µM) | clearance [16]: 20.6 mL/min/kg | remaining at 6 h, 1 µM [17]: 109% | fraction unbound at 6 h, 1 µM [18]: 0.002 | t1/2 [19]: 3.91 min | solubility [20]: 4.8 µM (≈ 2.09 µg/mL) | MIC (Escherichia coli): 0.06 µg/mL (≈ 0.138 µM) | fraction unbound at 6 h, 1 µM [21]: 0.00232 | CLint scaled [22]: 33.8 mL/min/kg | remaining at 6 h, 1 µM [23]: 111% | CLint scaled [24]: 165 mL/min/kg | IC50 (Cytochrome P450 2C19): > 30 µM | solubility [25]: 9.41 µM (≈ 4.09 µg/mL) | AUC(0-t) at 24 h [26]: 1050 ng·h/mL | bioavailability [27]: 13.3% | MIC (Pseudomonas aeruginosa [28]): > 64 µg/mL | MRT last at 24 h [29]: 1.31 h | recovery at 6 h, 1 µM [30]: 110% | half-life [31]: 2.5 h | IC50 (HepG2): > 30 µM | CLH [32]: 17.6 µL/min/mg | CLint scaled [33]: 8.59 mL/min/kg | fraction unbound at 6 h, 1 µM [34]: 0.0016 | IC50 (Cytochrome P450 1A2): > 30 µM | Tmax [35]: 4 h | remaining at 6 h, 1 µM [36]: 113% | recovery at 6 h, 1 µM [37]: 103% | IC50 (Cytochrome P450 3A4): > 30 µM | fraction unbound at 6 h, 1 µM [38]: 0.002

Reference: ChEMBL document CHEMBL6127085, “Design, synthesis and evaluation of novel LpxC inhibitors containing a hydrazone moiety as Gram-negative antibacterial agents” (Eur J Med Chem, 2024)
